{"source": "PubChem BioAssay AID1259407", "about": "(Chemical Carcinogenesis Research Information System (CCRIS), 2018)", "test_system": "CCRIS mutagenicity, Ames/micronucleus/aberration tests", "test": "CCRIS mutagenicity studies", "note": "Calls of active or inactive are those of the source. The rule behind the calls is not given here."}
{"smiles": "CN(C)c1ccc2nc3ccc(=[N+](C)C)cc-3sc2c1", "values": [{"measurement": "mutagenic call", "setting": "End Point: In vitro chromosomal aberrations, Test System: Chinese hamster ovary cells, Metabolic Activation: None", "result": "active; positive"}, {"measurement": "mutagenic call", "setting": "End Point: In vitro chromosomal aberrations, Test System: Chinese hamster ovary cells, Metabolic Activation: Rat, Liver, S-9, Aroclor", "result": "active; positive"}, {"measurement": "mutagenic call", "setting": "End Point: In vivo micronucleus, Test System: Bone marrow, Species: Mouse, Strain/Sex: B6C3F1/Male, Route: Intraperitoneal", "result": "inactive; negative"}, {"measurement": "mutagenic call", "setting": "End Point: In vivo micronucleus, Test System: Peripheral blood normochromatic erythrocytes, Species: Mouse, Strain/Sex: B6C3F1/Female, Route: Oral", "result": "inactive; negative"}, {"measurement": "mutagenic call", "setting": "End Point: In vivo micronucleus, Test System: Peripheral blood normochromatic erythrocytes, Species: Mouse, Strain/Sex: B6C3F1/Male, Route: Intraperitoneal", "result": "inactive; negative"}, {"measurement": "mutagenic call", "setting": "End Point: In vivo micronucleus, Test System: Peripheral blood normochromatic erythrocytes, Species: Mouse, Strain/Sex: B6C3F1/Male, Route: Oral", "result": "inactive; negative"}, {"measurement": "mutagenic call", "setting": "Test System: AMES SALMONELLA TYPHIMURIUM, Strain/Indicator: TA98, Metabolic Activation: HAMSTER, LIVER, S-9, AROCLOR 1254, Method: STANDARD PLATE", "result": "active; positive"}, {"measurement": "mutagenic call", "setting": "Test System: AMES SALMONELLA TYPHIMURIUM, Strain/Indicator: TA98, Metabolic Activation: NONE, Method: STANDARD PLATE", "result": "inactive; negative"}, {"measurement": "mutagenic call", "setting": "Test System: AMES SALMONELLA TYPHIMURIUM, Strain/Indicator: TA98, Metabolic Activation: RAT, LIVER, S-9, AROCLOR 1254, Method: STANDARD PLATE", "result": "active; positive"}, {"measurement": "mutagenic call", "setting": "Test System: AMES SALMONELLA TYPHIMURIUM, Strain/Indicator: TA100, Metabolic Activation: NONE, Method: STANDARD PLATE", "result": "active; positive"}, {"measurement": "mutagenic call", "setting": "Test System: AMES SALMONELLA TYPHIMURIUM, Strain/Indicator: TA100, Metabolic Activation: RAT, LIVER, S-9, AROCLOR 1254, Method: STANDARD PLATE", "result": "active; positive"}, {"measurement": "mutagenic call", "setting": "Test System: Ames Salmonella typhimurium, Strain/Indicator: TA98, Metabolic Activation: Hamster, Liver, S-9, Aroclor 1254 (30%), Method: Standard plate", "result": "active; positive"}, {"measurement": "mutagenic call", "setting": "Test System: Ames Salmonella typhimurium, Strain/Indicator: TA98, Metabolic Activation: None, Method: Preincubation", "result": "active; positive"}, {"measurement": "mutagenic call", "setting": "Test System: Ames Salmonella typhimurium, Strain/Indicator: TA98, Metabolic Activation: None, Method: Standard plate", "result": "active; positive"}, {"measurement": "mutagenic call", "setting": "Test System: Ames Salmonella typhimurium, Strain/Indicator: TA98, Metabolic Activation: Rat, Liver, S-9, Aroclor 1254 (10%), Method: Preincubation", "result": "active; positive"}, {"measurement": "mutagenic call", "setting": "Test System: Ames Salmonella typhimurium, Strain/Indicator: TA98, Metabolic Activation: Rat, Liver, S-9, Aroclor 1254 (30%), Method: Standard plate", "result": "active; positive"}, {"measurement": "mutagenic call", "setting": "Test System: Ames Salmonella typhimurium, Strain/Indicator: TA100, Metabolic Activation: Hamster, Liver, S-9, Aroclor 1254 (30%), Method: Standard plate", "result": "active; positive"}, {"measurement": "mutagenic call", "setting": "Test System: Ames Salmonella typhimurium, Strain/Indicator: TA100, Metabolic Activation: None, Method: Preincubation", "result": "active; positive"}, {"measurement": "mutagenic call", "setting": "Test System: Ames Salmonella typhimurium, Strain/Indicator: TA100, Metabolic Activation: None, Method: Standard plate", "result": "inactive; negative (ntp describes as equivocal)"}, {"measurement": "mutagenic call", "setting": "Test System: Ames Salmonella typhimurium, Strain/Indicator: TA100, Metabolic Activation: Rat, Liver, S-9, Aroclor 1254 (10%), Method: Preincubation", "result": "active; positive"}, {"measurement": "mutagenic call", "setting": "Test System: Ames Salmonella typhimurium, Strain/Indicator: TA100, Metabolic Activation: Rat, Liver, S-9, Aroclor 1254 (30%), Method: Standard plate", "result": "active; positive"}, {"measurement": "mutagenic call", "setting": "Test System: E. coli, Strain/Indicator: WP uvrA/pKM101, Metabolic Activation: None, Method: Preincubation", "result": "active; positive"}, {"measurement": "mutagenic call", "setting": "Test System: E. coli, Strain/Indicator: WP uvrA/pKM101, Metabolic Activation: Rat, Liver, S-9, Aroclor 1254 (10%), Method: Preincubation", "result": "active; positive"}, {"measurement": "mutagenic call", "setting": "Test System: MOUSE LYMPHOMA, Strain/Indicator: L5178Y (TK+/TK-), Metabolic Activation: NONE, Method: SUSPENSION/PLATE", "result": "active; positive"}, {"measurement": "mutagenic call", "setting": "Test System: MOUSE LYMPHOMA, Strain/Indicator: L5178Y (TK+/TK-), Metabolic Activation: RAT, LIVER, S-9, Method: SUSPENSION/PLATE", "result": "active; positive"}, {"measurement": "mutagenic call", "setting": "Test System: Mouse lymphoma, Strain/Indicator: L5178Y (tk+/tk-), Metabolic Activation: None, Method: Suspension/plate", "result": "active; positive"}, {"measurement": "mutagenic call", "setting": "Test System: Mouse lymphoma, Strain/Indicator: L5178Y (tk+/tk-), Metabolic Activation: Rat, Liver, S-9, Aroclor 1254, Method: Suspension/plate", "result": "active; positive"}]}
{"smiles": "CCS(=O)CCSP(=O)(OC)OC", "note": "(centres undefined)", "values": [{"measurement": "mutagenic call", "setting": "Test System: AMES SALMONELLA TYPHIMURIUM, Strain/Indicator: TA97, Metabolic Activation: HAMSTER, LIVER, S-9, AROCLOR 1254 (10%), Method: PREINCUBATION", "result": "inactive; negative"}, {"measurement": "mutagenic call", "setting": "Test System: AMES SALMONELLA TYPHIMURIUM, Strain/Indicator: TA97, Metabolic Activation: NONE, Method: PREINCUBATION", "result": "inactive; negative"}, {"measurement": "mutagenic call", "setting": "Test System: AMES SALMONELLA TYPHIMURIUM, Strain/Indicator: TA97, Metabolic Activation: RAT, LIVER, S-9, AROCLOR 1254 (10%), Method: PREINCUBATION", "result": "inactive; negative"}, {"measurement": "mutagenic call", "setting": "Test System: AMES SALMONELLA TYPHIMURIUM, Strain/Indicator: TA98, Metabolic Activation: HAMSTER, LIVER, S-9, AROCLOR 1254 (10%), Method: PREINCUBATION", "result": "inactive; negative"}, {"measurement": "mutagenic call", "setting": "Test System: AMES SALMONELLA TYPHIMURIUM, Strain/Indicator: TA98, Metabolic Activation: NONE, Method: PREINCUBATION", "result": "inactive; negative"}, {"measurement": "mutagenic call", "setting": "Test System: AMES SALMONELLA TYPHIMURIUM, Strain/Indicator: TA98, Metabolic Activation: RAT, LIVER, S-9, AROCLOR 1254 (10%), Method: PREINCUBATION", "result": "inactive; negative"}, {"measurement": "mutagenic call", "setting": "Test System: AMES SALMONELLA TYPHIMURIUM, Strain/Indicator: TA100, Metabolic Activation: HAMSTER, LIVER, S-9, AROCLOR 1254 (10%), Method: PREINCUBATION", "result": "active; positive"}, {"measurement": "mutagenic call", "setting": "Test System: AMES SALMONELLA TYPHIMURIUM, Strain/Indicator: TA100, Metabolic Activation: NONE, Method: PREINCUBATION", "result": "inactive; negative"}, {"measurement": "mutagenic call", "setting": "Test System: AMES SALMONELLA TYPHIMURIUM, Strain/Indicator: TA100, Metabolic Activation: RAT, LIVER, S-9, AROCLOR 1254 (10%), Method: PREINCUBATION", "result": "active; positive"}, {"measurement": "mutagenic call", "setting": "Test System: AMES SALMONELLA TYPHIMURIUM, Strain/Indicator: TA1535, Metabolic Activation: HAMSTER, LIVER, S-9, AROCLOR 1254 (10%), Method: PREINCUBATION", "result": "active; positive"}, {"measurement": "mutagenic call", "setting": "Test System: AMES SALMONELLA TYPHIMURIUM, Strain/Indicator: TA1535, Metabolic Activation: NONE, Method: PREINCUBATION", "result": "active; positive"}, {"measurement": "mutagenic call", "setting": "Test System: AMES SALMONELLA TYPHIMURIUM, Strain/Indicator: TA1535, Metabolic Activation: RAT, LIVER, S-9, AROCLOR 1254 (10%), Method: PREINCUBATION", "result": "active; positive"}]}
